Measured values taken from patent US20130005696A1, “BUFADIENOLIDE DERIVATIVES, PREPARING PROCESS THEREOF, COMPOSITION COMPRISING THE SAME AND THE USE THEREOF” (priority 2011, published 2013).

Assays:
[1] = system: MCF-7 human breast carcinoma cell line; experiment: In vitro antitumor activity assay (SRB), MCF-7; format: cell-based; conditions: Homo sapiens, MCF7; MCF-7, Table 2; read-out: IC50, inhibition of cell proliferation, MCF-7
Description: (§1) HeLa human cervical carcinoma cell line, A-549 human non-small cell lung carcinoma cell line, NCI-H2228 human lung carcinoma cell line, NCI-H460 human lung carcinoma cell line, MDA-MB-231 human breast carcinoma cell line, MCF-7 human breast carcinoma cell line, Bel-7402 human hepatic carcinoma cell line, Hep3B human hepatic carcinoma cell line, QGY-7703 human hepatic carcinoma cell line, MV-4-11 human leukemic cell line, DAUDI human leukemic cell line, Jurkat human leukemic cell line, A498 renal carcinoma cell line, LoVo human colon carcinoma cell line, HCT1116 human colon carcinoma cell line, A431 human skin carcinoma cell line, PANC-1 human pancreatic carcinoma cell line, U87-MG human brain carcinoma cell line, SH-SY5Y human brain carcinoma cell line, RPMI-8226 human bone carcinoma cell line, HT1080 human fibrosarcoma cell line, PC-3 human prostatic carcinoma cell line, AGS human gastric adenocarcinoma cell line, and BGC-823 human gastric adenocarcinoma cell line were purchased from the Cell Bank of the Chinese Academy of Sciences.
(§2) The positive control is bufalin (formulated according to the common method), its purity is 98% or more by HPLC-UV and its structure is identified by NMR. The compounds to be tested and the positive control were diluted with normal saline with a concentration gradient of 10^−4 M, 10^−5 M, 10^−6 M, 10^−7 M and 10^−8 M.
(§3) According to cell growth rate, tumor cells in the log phase of growth were seeded into 96-well culture plates at 100 μL per well, and allowed to attach for 24 hours, followed by addition of a test compound or positive control at 10 μL per well. For each concentration, the test was carried out in triplicate wells. Solvent control wells with addition of normal saline into cell culture and a blank well containing only cell culture medium but without cells for zeroing were also included. The tumor cells were incubated for 72 hours at 37° C. under 5% CO2, and then the culture medium (RPMI-1640) was removed. The cells were fixed with 10% cool TCA by incubating for 1 h at 4° C., washed with distilled water for 5 times, and dried naturally in the air. A solution of SRB (Sigma) (4 mg/mL) in 1% glacial acetic acid was added at 100 μL per well, and the cells were stained for 15 minutes at room temperature, and the supernatant was discarded. The plates were washed for 5 times with 1% acetic acid, and dried in air. Finally, Tris solution was added at 150 μL per well, and the absorbance (A) was measured at a wavelength of 515 nm using a microplate reader. The growth inhibition on tumor cell proliferation was calculated according to the following equation:
(§4) Growth Inhibition (%)=[(Absorbance of negative control−Absorbance of blank)−(Absorbance of sample−Absorbance of blank)]/(Absorbance of negative control−Absorbance of blank)×100%
(§5) Drug concentration: 10 μM, 1 μM, 0.1 μM, 10 nM, 1 nM, 0.1 nM.
(§6) IC50 was fitted by GraphPad Prism 4.

[2] = system: A-549 human non-small cell lung carcinoma cell line; experiment: In vitro antitumor activity assay (SRB), A549; format: cell-based; conditions: Homo sapiens; A549, Table 2; read-out: IC50, inhibition of cell proliferation, A549
Description: as §1, §2, §3, §4, §5, §6

[3] = system: LoVo human colon carcinoma cell line; experiment: In vitro antitumor activity assay (SRB), LoVo; format: cell-based; conditions: Table 2, read-out: IC50, inhibition of cell proliferation, LoVo
Description: as §1, §2, §3, §4, §5, §6

[4] = system: PC-3 human prostatic carcinoma cell line; experiment: In vitro antitumor activity assay (SRB), PC-3; format: cell-based; conditions: Homo sapiens, Prostatic carcinoma cell; PC-3, Table 2; read-out: IC50, inhibition of cell proliferation, PC-3
Description: as §1, §2, §3, §4, §5, §6

[5] = system: HeLa human cervical carcinoma cell line; experiment: In vitro antitumor activity assay (SRB), HeLa; format: cell-based; conditions: read-out: IC50, inhibitory activity on cell proliferation of HeLa cell line
Description: as §1, §2, §3, §4, §5, §6

[6] = system: human-derived leukaemia MV-4-11 xenograft; experiment: Therapeutic effect against MV-4-11 xenograft in nude mice; format: in vivo, Balb/c nude mice
Procedure: (§7) This experiment is to investigate the in vivo inhibitory effect of II1E-01.HCl on growth of human-derived hepatic carcinoma HepG2 cell, human-derived breast carcinoma MDA-MB-231 cell, human-derived lung carcinoma H460 cell, human-derived colon carcinoma HCT-116 cell, human-derived […] MV-4-11 cell xenografts in nude mice.
(§8) Formulation of solvent control (5% anhydrous ethanol & 5% aqueous glucose solution): 2.5 mL anhydrous ethanol was added into a 50 mL tube, followed by addition of 47.5 mL 5% glucose solution for injection followed by shaking, and stored at room temperature before use.
(§9) Formulation of the preparations of the compounds to be tested: formulations with concentrations of 0.4 mg/mL and 0.6 mg/mL were prepared respectively. An appropriate amount of II1E-01.HCl was weighted and put into a 50 mL tube, followed by addition of corresponding volume of solvent to get the desired concentration and mixed using a vortex mixer. After the solid was dissolved completely, the solution was subpackaged into 4 mL vials and stored at refrigerated condition (2-8° C.) until use.
(§10) Experimental animals: Balb/c nude mice (male, six weeks old).
MV-4-11 cells were in vitro cultured to be proliferated. The cells in the log phase of growth were collected and resuspended in IMDM serum-free medium, and then implanted subcutaneously into the axilla of the right forelimb of nude mice. After 37 days, the tumor size reached about 270 mm^3. The mice bearing the tumor were grouped by randomized block method according to the tumor size into 3 groups, which contain 6 mice in each group and include the group of solvent control, group of positive control (Sunitinib 40 mg/kg), and group of the testing compound II1E-01.HCl (4 mg/kg QOD). In the positive control group, sunitinib was administered intragastrically once daily (QD). In the group of II1E-01.HCl, II1E-01.HCl was administered intravenously at tail once every other day (QOD). The animals were given the drugs for 21 days, during which the growth of tumor and the body weight of the mice were observed.
After continuously administering for 21 days (the 58th day after the implantation), the tumor weight and inhibition rate were calculated, and results are listed in Table 9. […] In the group of the testing compound II1E-01.HCl (4 mg/kg QOD), the tumor also completely disappeared at 14th day after administration, and the inhibition rate was 100.00% (P<0.01) at the end of the experiment.

[7] = system: human hepatic carcinoma HepG2 xenograft; experiment: Therapeutic effect against HepG2 xenograft in nude mice; format: in vivo, Balb/c nude mice; conditions: 10 mg/kg iv, QW × 14 d; for Inhibition Rate (%): 10 mg/kg
Procedure: as §7, §8, §9, §10
HepG2 cells were in vitro cultured to be proliferated. The cells in the log phase of growth were collected and resuspended in DMEM serum-free medium, and then implanted subcutaneously into the axilla of the right forelimb of nude mice. After 11 days, the tumor size reached about 250 mm^3. The mice bearing the tumor were grouped according to the tumor size into 6 groups, including the group of solvent control, groups of positive controls (Rapamycin 10 mg/kg and Vinorelbine 8 mg/kg), and groups of low (2 mg/kg), middle (4 mg/kg) and high (6 mg/kg) dosages of the testing compound II1E-01.HCl. Each group was administered intravenously at tail. In the solvent control group, the solvent control solution was administered intravenously once every other day (QOD). In the low, middle and high dosage groups of II1E-01.HCl, II1E-01.HCl was administered intravenously once every other day (QOD). In the positive control groups, Rapamycin 10 mg/kg and Vinorelbine 8 mg/kg were administered once a week (QW). The animals were given the drugs for two weeks. In the two week time period, the growth of tumor and the body weight of the mice were observed.
Two weeks after administering (the 25th day after the implantation), the tumor weight and inhibition rate were calculated, and results are listed in Table 5.

[8] = system: human non-small cell lung carcinoma A549 xenograft; experiment: In vivo therapeutic effect against A549 xenograft in nude mice; conditions: A549 xenograft, 5 mg/kg iv QW, after 21 days
Procedure: This experiment is to evaluate the in vivo therapeutic effects of compounds bufalin, II1D-06.HCl, II1E-01.HCl and II1B-02.HCl against human-derived lung carcinoma A549 cell xenograft in nude mice.
Solvent control: 4% DMSO & 2% Tween-80 & 5% PEG-400 solution in normal saline
Compounds to be tested: bufalin, II1B-02.HCl, II1E-01.HCl, II1D-06.HCl
Formulating method: the compound was dissolved with DMSO into a stock solution, which was then diluted into an injection with a final DMSO concentration of 4%.
Positive control: Rapamycin Formulating method: it was formulated into an injection with a final DMSO concentration of 4%.
After the tumor size reaches about 200 mm^3, the mice bearing the tumor were grouped randomly into 8 groups according to the tumor size, including the groups of solvent control, positive control rapamycin 5 mg/kg, II1E-01.HCl 2 mg/kg, II1E-01.HCl 4 mg/kg, II1E-01.HCl 6 mg/kg, II1B-02.HCl 4 mg/kg, II1D-06.HCl 4 mg/kg, bufalin 1.6 mg/kg, wherein the dosage selection is based on that the maximum tolerable dosage is 1.6 mg/kg for bufalin and 6 mg/kg for II1E-01.HCl. Rapamycin was administered intravenously once a week (QW) and the other groups were administered intraperitoneally once every other day (QOD). The tumor was weighted after 21 days to calculate the inhibition rate. The equation for calculating inhibition rate (IR) is IR=(WC−WT)/WC×100%, wherein, WC represents the tumor weight of the control group, and WT represents the tumor weight of the treating group.

SMILES | IC50 [1] [nM] | IC50 [2] [nM] | IC50 [3] [nM] | IC50 [4] [nM] | IC50 [5] [nM] | day after administration at which the tumor completely disappeared ([6]; 40 mg/kg ig QD) [days] | Tumor Weight(g) Mean ± SE ([6]; 40 mg/kg ig, QD × 21 d) [g] | Inhibition Rate (%) ([6]; 40 mg/kg ig, QD × 21 d, 40 mg/kg) | Tumor Weight(g) Mean ± SE [7] [g] | Inhibition Rate (%) [7] [%] | Inhibition Rate (%) ([7]; listed as Rapamycin) | Inhibition Rate (%) [8] [%] | Tumor Weight(g) Mean ± SE [8] [g]
CCN(CC)CCNC(=O)O[C@H]1CC[C@@]2(C)[C@H](CC[C@@H]3[C@@H]2CC[C@]2(C)[C@@H](c4ccc(=O)oc4)CC[C@]32O)C1 [II1B-02] | 18.8 ± 2.68 | 0.39 ± 0.08 | 15.7 ± 1.67 | 20.1 ± 4.08 | 3.73 |  |  |  |  |  |  |  | 
CN(C)CCN(C)C(=O)O[C@H]1CC[C@@]2(C)[C@H](CC[C@@H]3[C@@H]2CC[C@]2(C)[C@@H](c4ccc(=O)oc4)CC[C@]32O)C1 [II1B-03] | 10.6 ± 3.04 | 2.81 ± 0.43 | 13.4 ± 3.37 | 27.3 ± 2.46 | 1.58 |  |  |  |  |  |  |  | 
CCNCCNC(=O)O[C@H]1CC[C@@]2(C)[C@H](CC[C@@H]3[C@@H]2CC[C@]2(C)[C@@H](c4ccc(=O)oc4)CC[C@]32O)C1 [II1B-05] | 7.98 ± 1.9 | 2.83 ± 0.9 | 14.4 ± 0.76 | 12.6 ± 0.86 | 1.65 |  |  |  |  |  |  |  | 
C[C@]12CC[C@H](OC(=O)N3CCCNCC3)C[C@H]1CC[C@@H]1[C@@H]2CC[C@]2(C)[C@@H](c3ccc(=O)oc3)CC[C@]12O [II1D-06] | 2.13 ± 0.29 | 0.87 ± 0.02 | 0.58 ± 0.29 | 1.25 ± 0.46 | 0.45 |  |  |  |  |  |  |  | 
C[C@]12CC[C@H](OC(=O)NCC3CCCCN3)C[C@H]1CC[C@@H]1[C@@H]2CC[C@]2(C)[C@@H](c3ccc(=O)oc3)CC[C@]12O (stereo partly drawn) [II1E-03] | 31 ± 3.07 | 0.58 ± 0.17 | 23.4 ± 3.68 | 14.8 ± 1.12 | 0.8 |  |  |  |  |  |  |  | 
CCN(CC)CCNC(=O)c1c(C)[nH]c(/C=C2\C(=O)Nc3ccc(F)cc32)c1C [Sunitinib, reference compound] |  |  |  |  |  | 10 | 0.0000 ± 0.0000 | 100.00 |  |  |  |  | 
CO[C@H]1C[C@@H]2CC[C@@H](C)[C@@](O)(O2)C(=O)C(=O)N2CCCC[C@H]2C(=O)O[C@H]([C@H](C)C[C@@H]2CC[C@@H](O)[C@H](OC)C2)CC(=O)[C@H](C)/C=C(\C)[C@@H](O)[C@@H](OC)C(=O)[C@H](C)C[C@H](C)/C=C/C=C/C=C/1C [rapamycin, Rapamycin, reference compound] |  |  |  |  |  |  |  |  | 0.4806 ± 0.0269 | 37.23 | 37.23 | 58.86 | 0.6925 ± 0.0652
